The test has as its system murine neural precursor cells (neurosphere cultures). The test is described as follows: HTS of LOPAC library against secondary neurosphere cultures, MTT proliferation assay at 3 μM, day 7 (z score, P value). Format: cell-based, mouse. On the technique in general: Tetrazolium assays rely on reduction of a dye to a coloured formazan, in cell work by metabolically active cells.

Where [1] appears, read: yes/no: significantly inhibited neurosphere proliferation (P<0.01) in primary screen.
The mark [2] stands for this setting: LOPAC primary screen, neurosphere MTT proliferation, 3 μM, day 7.
[3] abbreviates: LOPAC library screen, 3 μM, MTT, neurosphere cultures.
Where [4] appears, read: primary LOPAC screen, 3 μM, MTT, neurosphere proliferation.
The mark [5] stands for this setting: yes/no: significantly inhibited neurosphere proliferation in the primary screen.
Setting [6] is: yes = significantly inhibited neurosphere proliferation (P<0.01) in the primary screen.
Setting [7] is: LOPAC library screen at 3 μM, secondary neurosphere cultures, MTT.
Where [8] appears, read: LOPAC library screen at 3 μM, MTT, secondary neurosphere cultures, screened in singlets.
The mark [9] stands for this setting: yes/no: significantly inhibited neurosphere proliferation (P<0.01) in the primary screen.
Setting [10] is: LOPAC screen, neurosphere MTT proliferation, 3 μM, day 7.
Setting [11] is: yes/no: significantly inhibited neurosphere proliferation in primary screen.
The mark [12] stands for this setting: LOPAC library screen, 3 μM, MTT, secondary neurosphere cultures, day 7.

Counter-ions that a name gives are not always drawn. Like-named read-outs stand apart in the source and are kept apart here.

For `CCCCCC(O)CCCC(=O)O.[Na]` (centres unmarked) [5-hydroxydecanoic acid sodium], where the note is “168 h, 3 µM”, the “Z Score” value is 0.2332 and the Z score is on record as 0.233. The Activity result under setting [1] is “no”.
Turning to `Nc1ccc(N2C(=O)c3ccccc3C2=O)c(Cl)c1` [L-655,708], the “Z Score” value was −0.6132. For the same molecule, the Z score under setting [2] is −0.613. Under setting [1], the Activity entry is reported as “no”.
Terbutaline hemisulfate: the “Z Score” value under setting [3] is 0.6409. This molecule also came in with a Z score under setting [4] of 0.641. Further, the Activity entry under setting [5] is reported as “no”.
Take `O=C(O)CC[N+](=O)[O-]` [3-Nitropropionic acid]: the “Z Score” value was −0.5631. Also, under setting [2], the Z score was −0.563. The Activity result under setting [6] is “no”.
As for `O=C1N(c2ccccc2)c2ccccc2C1(Cc1ccncc1)Cc1ccncc1` [Linopirdine], the “Z Score” value under setting [7] is reported as −0.5525. Also, the Z score under setting [2] was −0.553. Further, under setting [6], the Activity result was “no”.
`S=C([S-])OC1CC2CC1C1CCCC21.[K+]` [D-609 potassium]: the “Z Score” value under setting [7] is listed as −0.8964. Also, under setting [4], the Z score was −0.896. The Activity result under setting [5] is reported as “no”.
On to `Cl.NC1(C(=O)O)CCCCC1` [1-Amino-1-cyclohexanecarboxylic acid hydrochloride], for which, under “168 h, 3 µM”, the “Z Score” value was −0.7495 and the Z score is −0.749. Further, the Activity entry under setting [5] was “no”.
Consider `NN=C(N)N.NN=C(N)N.O=S(=O)(O)O` [Aminoguanidine hemisulfate], for which the Activity entry is reported as “no”, the “Z Score” value is reported as −1.219 and the Z score was −1.219.
`COc1cc2ncnc(Nc3cccc(Cl)c3)c2cc1OC` [Tyrphostin AG 1478]: the “Z Score” value under setting [8] was determined as 1.87. The Z score under setting [2] turned out to be 1.870. For the same molecule, the Activity entry under setting [9] is listed as “no”.
In the case of `NC1(C(=O)O)CCC(C(=O)O)C1` (stereo not drawn) [trans-(B1)-ACPD], the “Z Score” value is recorded as 0.3149.
As to `O=c1c2ccccc2nc2n1CCc1c-2[nH]c2ccccc12` [Rutaecarpine], for the setting “168 h, 3 µM”, the “Z Score” value came to 0.6857 and the Z score is 0.686.
Regarding `CCCN1CCC[C@@H](c2cccc(C#N)c2)C1.Cl` [S(−)-DS 121 hydrochloride], the “Z Score” value is given as −0.0998. Under setting [10], this molecule came in with a Z score of −0.100. Under setting [1], the Activity result is “no”.
Under setting [2], `COc1ccccc1N1CCN(CCN(C(=O)c2ccc(F)cc2)c2ccccn2)CC1.Cl.Cl` [p-MPPF dihyrochloride] had a Z score of −2.160. Moreover, the Activity entry under setting [6] is “no”.
With `NC(CCP(=O)(O)O)C(=O)O` (centres unmarked) [(B1)-2-Amino-4-phosphonobutyric acid], the “Z Score” value amounted to 1.893.
Turning to `Br.Br.N=C(N)SCCN` [2-(2-Aminoethyl)isothiourea dihydrobromide], for the setting “168 h, 3 µM”, the “Z Score” value is recorded as −1.251 and the Z score is recorded as −1.251. Besides, the Activity result under setting [5] is on record as “no”.
Take (−)-Eseroline fumarate: the “Z Score” value was 0.6339. For the same molecule, the Z score under setting [2] stood at 0.634. In addition, under setting [1], the Activity result was “no”.
For `O=c1onc2cnc3ccccc3n12` [ODQ], the “Z Score” value is −0.5922. Under setting [2], this molecule displayed a Z score of −0.592. Also, under setting [11], the Activity entry is listed as “no”.
For the molecule `O=C1OC(=O)[C@H]2[C@@H]1[C@@H]1CC[C@H]2O1` [Norcantharidin], the “Z Score” value is −1.251. Under setting [2], this molecule had a Z score of −1.251. The Activity result under setting [6] is given as “no”.
In the case of `COc1ccc(C(=O)N2CCCC2=O)cc1` [Aniracetam], the “Z Score” value under setting [12] was −1.355. This molecule also had a Z score under setting [4] of −1.355. Besides, the Activity result under setting [5] is “no”.
In the case of `NC(=O)c1ccccc1` [Beuzamide], the “Z Score” value is on record as 0.5498.
Take `Cc1ccccc1CNc1ncnc2c1ncn2[C@@H]1O[C@H](CO)[C@@H](O)[C@H]1O` [Metrifudil]: under setting [7], the “Z Score” value is recorded as −0.2123. The Z score under setting [2] is −0.212. The Activity result under setting [6] was “no”.
Consider `CCCN1CCO[C@@H]2c3cc(O)ccc3OC[C@H]21.Cl` [(B1)-PD 128,907 hydrochloride], for which the “Z Score” value was 1.164.
Take `NC(CP(=O)(O)O)C(=O)O` (racemic) [(±)-2-Amino-3-phosphonopropionic acid]: the Z score under setting [4] is on record as 1.250. The Activity result under setting [5] is recorded as “no”.
Consider `C[C@]12CC[C@@H](O)C[C@@H]1CC[C@@H]1[C@@H]2CC[C@]2(C)C(=O)CC[C@@H]12` [Androsterone], for which the Activity result is reported as “no”, the “Z Score” value worked out at 1.947 and the Z score turned out to be 1.947.
Consider `CC(C)(Sc1ccc(CCN(CCCCC2CCCCC2)C(=O)NC2CCCCC2)cc1)C(=O)O` [GW7647], for which the “Z Score” value is given as −0.9923. Also, under setting [2], the Z score is given as −0.992. Further, the Activity result under setting [1] is listed as “no”.
Consider `COc1cc(CC(C)N)c(OC)cc1I.Cl` (centres unmarked) [(B1)-DOI hydrochloride], for which the “Z Score” value is reported as −1.345.
On to `CN(C)c1nc(N(C)C)nc(N(C)C)n1` [Altretamine], for which, under setting [12], the “Z Score” value is recorded as −1.322. Under setting [4], this molecule yielded a Z score of −1.322. Moreover, under setting [5], the Activity entry is reported as “no”.
`O=C(O)c1nn(Cc2ccc(Cl)cc2Cl)c2ccccc12` [Lonidamine]: under setting [3], the “Z Score” value turned out to be 0.4358. Also, under setting [2], the Z score worked out at 0.436. The Activity result under setting [1] is “no”.
Turning to `Clc1cnc(Oc2ccc(Oc3ncc(Cl)cc3Cl)cc2)c(Cl)c1` [TCPOBOP], the “Z Score” value under setting [12] is −2.008. The molecule further had a Z score under setting [2] of −2.008. The Activity result under setting [6] was “no”.
For `Cc1cn([C@H]2C[C@H](N=[N+]=[N-])[C@@H](CO)O2)c(=O)[nH]c1=O` [3′-Azido-3′-deoxythymidine], the Activity result was “yes”. Further, under setting [12], the “Z Score” value is −5.023. Also, the Z score under setting [2] is reported as −5.023.
On to `COc1c2c(nc3ccccc13)OC(C(C)(O)CO)C2` (centres unmarked) [Dubinidine], for which the “Z Score” value is recorded as −2.437. In addition, the Z score under setting [2] is listed as −2.437. For the same molecule, the Activity result under setting [9] was “yes”.
For the molecule `NC(=O)OCC(COC(N)=O)c1ccccc1` [Felbamate], the “Z Score” value under setting [7] is listed as −0.4586. Further, the Z score under setting [2] is recorded as −0.459. Also, under setting [1], the Activity result is reported as “no”.
Take `CC[C@@H](CO)NC(=O)[C@@H]1C=C2c3cccc4[nH]cc(c34)C[C@H]2N(C)C1` [Methylergonovine maleate]: the “Z Score” value is −0.7846. Also, under setting [2], the Z score is listed as −0.785. Moreover, the Activity entry under setting [6] is recorded as “no”.
For `CC#C[C@]1(O)CC[C@H]2[C@@H]3CCC4=CC(=O)CCC4=C3[C@@H](c3ccc(N(C)C)cc3)C[C@@]21C` [Mifepristone], where the note is “168 h, 3 µM”, the “Z Score” value is reported as −1.97 and the Z score was −1.970. Also, the Activity result under setting [6] is recorded as “no”.
For the molecule `Cl.Cl.NCCNS(=O)(=O)c1cccc2cnccc12` [H-9 dihydrochloride], the “Z Score” value is given as −0.1899. Moreover, under setting [4], the Z score is −0.190. Also, the Activity result under setting [5] is listed as “no”.
Consider `O=c1oc(Cl)c(Cl)c2ccccc12` [3,4-Dichloroisocoumarin], for which, for the setting “168 h, 3 µM”, the “Z Score” value was −1.12 and the Z score is given as −1.120. Besides, the Activity result under setting [1] was “no”.
`CCn1nc(C(=O)O)c(=O)c2cc3c(cc21)OCO3` [Cinoxacin]: the “Z Score” value under setting [7] is reported as −1.095. Under setting [10], this molecule displayed a Z score of −1.095. Also, under setting [1], the Activity entry is on record as “no”.
For the molecule `Oc1ccc(O)cc1` [Hydroquinone], the “Z Score” value under setting [3] was 0.428. The same molecule came in with a Z score under setting [2] of 0.428. Moreover, the Activity result under setting [1] is listed as “no”.
`O.c1cnc2c(c1)ccc1cccnc12` [1,10-Phenanthroline monohydrate]: the “Z Score” value is −0.8855. Under setting [2], this molecule returned a Z score of −0.886. In addition, the Activity entry under setting [11] is on record as “no”.
For `CN(C)CCCCSC(=N)N.Cl.Cl` [SKF 91488 dihydrochloride], in that order: −0.766, −0.766 and “no”.
`CC1=C(/C=C/C(C)=C/C=C/C(C)=C/C=C/C=C(C)/C=C/C=C(C)/C=C/C2=C(C)C(=O)[C@@H](O)CC2(C)C)C(C)(C)C[C@H](O)C1=O` [Astaxanthin]: where the note is “168 h, 3 µM”, the “Z Score” value was 1.571 and the Z score is recorded as 1.571. Under setting [9], the Activity result was “no”.
Consider `CN(C)C(=O)Oc1ccc[n+](C)c1` [Pyridostigmine bromide], for which the “Z Score” value was found to be 0.2311. The molecule also showed a Z score under setting [2] of 0.231. Also, the Activity result under setting [11] was “no”.
As for `Cc1nc2n(c(=O)c1CCN1CCC(c3noc4cc(F)ccc34)CC1)CCCC2` [Risperidone], the “Z Score” value stood at 1.694. Under setting [2], this molecule had a Z score of 1.694. Under setting [11], the Activity entry is recorded as “no”.
As for `c1ccc(-c2ccccn2)nc1` [2,2′-Bipyridyl], the “Z Score” value stood at 1.455. The molecule also had a Z score under setting [10] of 1.455. The Activity entry under setting [1] is “no”.
Consider `Br.C[N+](C)(C)CCCCCNCC12CC3CC(CC(C3)C1)C2.[Br-]` [IEM-1460], for which the “Z Score” value was 0.6848. The same molecule returned a Z score under setting [2] of 0.685. Further, the Activity result under setting [1] is reported as “no”.
For the molecule `CC(C)NC[C@@H](O)COc1ccc(CC(N)=O)cc1` [R(+)-Atenolol], under setting [8], the “Z Score” value is on record as 3.764. The same molecule returned a Z score under setting [4] of 3.764. Moreover, the Activity entry under setting [5] was “no”.
Consider `O=C(O)[C@H]1C[C@H](C(=O)O)N1` (relative stereo) [trans-Azetidine-2,4-dicarboxylic acid], for which, under “168 h, 3 µM”, the “Z Score” value was −0.3491 and the Z score is −0.349. Also, the Activity result under setting [5] is listed as “no”.
On to `O=C(Nc1ccccc1)c1cc([N+](=O)[O-])ccc1Cl` [GW9662], for which the “Z Score” value was 1.475. Besides, under setting [2], the Z score was 1.475. The Activity entry under setting [6] is “no”.
